Measured values reported in patent US4559338A, “Soluble quinazolino-1,4-benzodiazepin-5,13-dione derivatives” (Merck & Co., Inc., priority 1985, dated 1985).
In brackets after ≈: the same amount, converted by molar mass. Structures can show the parent of a compound that is named as a salt. Where two headings read alike, the source gives them in different places. Blank lines part the entries; values can stand above or below the compound they belong to. Where a SMILES comes first, the peptide text is derived from it. [ ]: non-standard residue; d: D form. The star is where a group is joined. sY = N[C@@H](Cc1ccc(OS(=O)(=O)O)cc1)C(=O)O; Cbz = O=C(OCc1ccccc1)*; Boc = CC(C)(C)OC(=O)*

Experiments:
CCK receptor = conditions: cited from earlier work
CCK receptor (pancreas) = target: T1, CCK receptor (pancreas) (Rattus norvegicus, UniProt P30551); assay: CCK receptor binding (pancreas) method, 125I-CCK; parameters: species or system rat (male Sprague-Dawley); conditions: for IC50: I-CCK-8 Pancreas assay, read-out: Anti-CCK Activity IC50; for effect on the 125I-CCK receptor binding assay (in words): additional protease inhibitors in assay buffer
T1 construct: The whole pancreas of a male Sprague-Dawley rat (200-350 g); from tissue; host or cells: whole pancreas of male Sprague-Dawley rat, washed membrane homogenate
T1 sequence (P30551 1-444): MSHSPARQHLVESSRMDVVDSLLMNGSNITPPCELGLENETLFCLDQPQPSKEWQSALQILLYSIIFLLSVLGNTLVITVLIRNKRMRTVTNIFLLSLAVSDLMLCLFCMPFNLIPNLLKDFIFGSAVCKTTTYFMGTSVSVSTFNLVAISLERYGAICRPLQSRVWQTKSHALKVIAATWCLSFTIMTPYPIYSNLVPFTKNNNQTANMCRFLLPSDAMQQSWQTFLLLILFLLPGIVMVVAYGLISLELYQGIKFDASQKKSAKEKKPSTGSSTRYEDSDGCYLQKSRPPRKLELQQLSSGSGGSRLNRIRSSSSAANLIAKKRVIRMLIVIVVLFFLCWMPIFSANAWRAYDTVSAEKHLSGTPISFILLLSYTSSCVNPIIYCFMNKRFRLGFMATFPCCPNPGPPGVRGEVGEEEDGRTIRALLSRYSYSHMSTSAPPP
Description: Screening of the novel compounds according to the present invention to determine biological activity and obtain an IC50 value for them, in order to identify significant CCK-antagonism, may be accomplished using an ^125 I-CCK receptor binding assay and in vitro isolated tissue preparations. These tests involve the following:
CCK receptor binding (pancreas) method
[…] (J. Biol. Chem., 254, 9349-9351, 1979). Receptor binding is performed according to Innis and Snyder (Proc. Natl. Acad. Sci., 77, 6917-6921, 1980), with the minor modification of adding the additional protease inhibitors, phenyl-methane sulfonyl fluoride and o-phenanthroline, which have no effect on the ^125 I-CCK receptor binding assay.
The whole pancreas of a male Sprague-Dawley rat (200-350 g), which has been sacrificed by decapitation, is dissected free of fat tissue and homogenized in 20 volumes of ice-cold 50 mM Tris HCl (pH 7.7 at 25° C.) with a Brinkman Polytron PT-10. The homogenates are centrifuged at 48,000 g for 10 minutes, then the resulting pellets are resuspended in Tris Buffer, centrifuged as above, and resuspended in 200 volumes of binding assay buffer (50 mM Tris HCl, pH 7.7 at 25° C., 5 mM dithiothreitol, 0.1 mM bacitracin, 1.2 mM phenylmethane sulfonyl fluoride and 0.5 mM o-phenanthroline).
For the binding assay, 25 μl of buffer (for total binding), or unlabeled CCK-8 sulfate sufficient to give a final concentration of 1 μM of CCK-8 (for nonspecific binding), or the compounds of the formula of the compounds according to the instant invention ([…]), are added to 450 μl of the membrane suspensions in microfuge tubes. All assays are run in duplicate or triplicate, and the reaction mixtures are incubated at 37° C. for 30 minutes and centrifuged in a Beckman Microfuge (4 minutes) immediately after adding 1 ml of ice-cold incubation buffer. The supernatant is aspirated and discarded, and the pellets are counted with a Beckman Gamma 5000.
The compounds of Examples 1-9 were tested for solubility in deionized water and pH 7.4 phosphate buffer and as CCK-antagonists (pancreas assay) with the following results: […]

[1] = Solubility in deionized water and pH 7.4 phosphate buffer; format: physicochemical
[2] = Solubility / stability and absorption stated in the text (no method described); format: physicochemical; conditions: white powder
[3] = compound of the earlier filing U.S. Pat. No. 4,530,790; cited from earlier work
[4] = deionized water, water, H2O (deionized water), read-out: Solubility
[5] = phosphate buffer, pH 7.4, aqueous buffer, pH 7.4 Buffer, read-out: Solubility

SMILES: CSCC[C@H](NC(=O)OC(C)(C)C)C(=O)N[C@@H](CC(=O)O)C(=O)N[C@@H](Cc1ccccc1)C(N)=O [Boc-Met-Asp-Phe-NH2] (Boc-Met-Asp-Phe-NH2)
CCK-antagonist activity (in words) (CCK receptor): can function as CCK-antagonists

SMILES: CSCC[C@H](NC(=O)[C@H](Cc1ccc(OS(=O)(=O)O)cc1)NC(=O)OCc1ccccc1)C(=O)NCC(=O)N[C@@H](Cc1c[nH]c2ccccc12)C(=O)N[C@@H](CCSC)C(=O)N[C@@H](CC(=O)O)C(N)=O [Cbz-Tyr(SO3 H)-Met-Gly-Trp-Met-Asp-NH2] (Cbz-[sY]MGWMD-NH2)
CCK-antagonist activity (in words) (CCK receptor): can function as CCK-antagonists

SMILES: CC(C)CC1C(=O)N2c3ccccc3C(O)(C3NC(=O)c4ccccc4-n4c3nc3ccccc3c4=O)C2N1C(=O)CCC(=O)[O-].[Na+] (stereo not drawn) [Example 2, sodium 2,3,9,9Aα-tetrahydro-9α-hydroxy-2-(2-methylpropyl)-γ,3-dioxo-9-(5,6,7,13-tetrahydro-5,13-dioxoquinazolino(3,2-A)-1,4-benzodiazepin-7-yl)-1H-imidazo(1,2-A)indole-1-butanoate]
IC50 (CCK receptor (pancreas)): 27 µM | Solubility ([1]; H2O (deionized water)): 72000 µg/mL

SMILES: CSCC[C@H](N)C(=O)N[C@@H](CC(=O)O)C(=O)N[C@@H](Cc1ccccc1)C(N)=O [Met-Asp-Phe-NH2] (H-Met-Asp-Phe-NH2)
CCK-antagonist activity (in words) (CCK receptor): can function as CCK-antagonists

SMILES: CCCC(=O)Nc1nc2c(ncn2[C@@H]2O[C@@H]3COP(=O)(O)O[C@H]3[C@H]2OC(=O)CCC)c(=O)[nH]1 [dibutyryl cyclic GMP]
relative CCK antagonist potency within cyclic nucleotide class (in words) (CCK receptor; derivatives of cyclic nucleotides, structure-function studies): the most potent

SMILES: CC(C)C[C@@H]1N[C@H]2N(C1=O)c1ccccc1[C@@]2(O)C[C@@H]1NC(=O)c2ccccc2-n2c1nc1ccccc1c2=O [formula (I), 7β-((2,3,9,9Aα-tetrahydro-9α-hydroxy-2-(2-methylpropyl)-3-oxo-1H-imidazo-(1,2-A)-indol-9-yl)-methyl)quinazolino(3,2-A)(1,4) benzodiazepin-5,13-(6H,7H)dione]
CCK-antagonist activity (in words) (CCK receptor): has been shown to be a CCK-antagonist | solubility in water (in words) [3]: only slightly soluble in water

SMILES: O=S(=O)(F)Cc1ccccc1 [phenyl-methane sulfonyl fluoride, reference compound]
effect on the 125I-CCK receptor binding assay (in words) (CCK receptor (pancreas)): no effect

Further lines, results first:

IC50 (CCK receptor (pancreas)): 230 µM | Solubility [1, 4]: 280 µg/mL (≈ 0.44 mM) | Solubility [1, 5]: 9500 µg/mL (≈ 14.9 mM)
SMILES: CC(C)C[C@H]1C(=O)N2c3ccccc3[C@@](O)(C[C@@H]3NC(=O)c4ccccc4-n4c3nc3ccccc3c4=O)[C@H]2N1C(=O)CCC(=O)O [Example 1, 2,3,9,9Aα-tetrahydro-9α-hydroxy-2-(2-methylpropyl)-γ,3-dioxo-9-(5,6,7,13-tetrahydro-5,13-dioxoquinazolino(3,2-A)-1,4-benzodiazepin-7-yl)-1H-imidazo(1,2-A)indole-1-butanoic acid]

IC50 (CCK receptor (pancreas)): 3.8 µM | water-soluble (in words) [2]: water-soluble
SMILES: CC(C)C[C@H]1C(=O)N2c3ccccc3[C@@](O)(C[C@@H]3NC(=O)c4ccccc4-n4c3nc3ccccc3c4=O)[C@H]2N1C(=O)[C@@H](N)CCCCN [Example 3, dihydrochloride]

IC50 (CCK receptor (pancreas)): 6.1 µM | Solubility ([1]; H2O (deionized water), dihydrate): 540 µg/mL | Solubility [1, 5]: 10800 µg/mL
SMILES: CC(C)C[C@H]1C(=O)N2c3ccccc3[C@@](O)(C[C@@H]3NC(=O)c4ccccc4N4C(=O)c5ccccc5NC34)[C@H]2N1C(=O)CCC(=O)O (stereo partly drawn) [Example 4, 9-(5,6,7,7A,8,13-hexahydro-5,13-dioxoquinazolino(3,2-A)-1,4-benzodiazepin-7-yl)-2,3,9,9A-tetrahydro-9α-hydroxy-2-(2-methylpropyl)-γ,3-dioxo-1H-imidazo(1,2-A)indole-1-butanoic acid dihydrate]

IC50 (CCK receptor (pancreas)): 1.7 µM | Solubility ([1]; H2O (deionized water), trihydrate): > 8900 µg/mL
SMILES: CC(C)C[C@H]1C(=O)N2c3ccccc3[C@@](O)(C[C@@H]3NC(=O)c4ccccc4N4C(=O)c5ccccc5NC34)[C@H]2N1C(=O)CCC(=O)O (stereo partly drawn) [Example 5, sodium 9-(5,6,7,7A,8,13-hexahydro-5,13-dioxoquinazolino(3,2-A)-1,4-benzodiazepin-7-yl)2,3,9,9A-tetrahydro-9α-hydroxy-2-(2-methylpropyl)-γ,3-dioxo-1H-imidazo(1,2-A)indole-1-butanoate trihydrate]

IC50 (CCK receptor (pancreas)): 1.8 µM | Solubility [1, 4]: 240 µg/mL
SMILES: CC(C)C[C@H]1C(=O)N2c3ccccc3[C@@](O)(C[C@@H]3NC(=O)c4ccccc4-n4c3nc3ccccc3c4=O)[C@H]2N1C(=O)[C@@H](N)CCCNC(=O)OCc1ccccc1 [Example 6, 1,2,9,9Aα-tetrahydro-9α-hydroxy-1-[2-amino-5-((phenylmethoxy)carbonyl)aminopentanoyl]-2-(2-methylpropyl)-9-[(5,6,7,13-tetrahydro-5,13-dioxoquinazolino(3,2-A)-1,4-benzodiazepin-7-yl)methyl]-3H-imidazo(1,2-A)indol-3-one hydrochloride]

IC50 (CCK receptor (pancreas)): 1.4 µM | Solubility ([1]; H2O (deionized water)): 10500 µg/mL
SMILES: CC(C)C[C@H]1C(=O)N2c3ccccc3[C@@](O)(C[C@@H]3NC(=O)c4ccccc4N4C(=O)c5ccccc5NC34)[C@H]2N1CC(=O)O (stereo partly drawn) [Example 7, 7β-[(1-carboxymethyl-2,3,9,9Aα-tetrahydro-9α-hydroxy-2-(2-methylpropyl)-3-oxo-1H-imidazo(1,2-A)indol-9-yl)methyl]-6,7,7A-8-tetrahydro-5H,13H-quinazolino(3,2-A)-1,4-benzodiazepin-5H,13-dione solvate]

IC50 (CCK receptor (pancreas)): 0.8 µM | Solubility ([1]; H2O (deionized water)): > 5200 µg/mL
SMILES: CC(C)C[C@H]1C(=O)N2c3ccccc3[C@@](O)(C[C@@H]3NC(=O)c4ccccc4N4C(=O)c5ccccc5NC34)[C@H]2N1CC(=O)O (stereo partly drawn) [Example 8, 7β-[(1-carboxymethyl-2,3,9,9Aα-tetrahydro-9α-hydroxy-2-(2-methylpropyl)-3-oxo-1H-imidazo(1,2-A)indol-9-yl)methyl]-6,7,7A-8-tetrahydro-5H,13H-quinazolino(3,2-A)-1,4-benzodiazepin-5H,13-dione sodium salt solvate]

IC50 (CCK receptor (pancreas)): 85 µM
SMILES: CC(C)C[C@@H]1N[C@H]2N(C1=O)c1ccccc1[C@]2(C[C@@H]1NC(=O)c2ccccc2-n2c1nc1ccccc1c2=O)OC(=O)CCC(=O)O [Example 9, 7β-[(2,3,9,9Aα-tetrahydro-9α-(3-carboxy-1-oxopropoxy)-2-(2-methylpropyl)-3-oxo-1H-imidazo(1,2-A)indol-9-yl)methyl]quinazolino(3,2-A)-1,4-benzodiazepin-5,13-(6H,7H)-dione monohydrate]

effect on the 125I-CCK receptor binding assay (in words) (CCK receptor (pancreas)): no effect
SMILES: c1cnc2c(c1)ccc1cccnc12 [o-phenanthroline, reference compound]
